The values that follow come from ChEMBL document CHEMBL1124153, “Synthesis and renin inhibitory activity of angiotensinogen analogues having dehydrostatine, Leu psi [CH2S]Val, or Leu psi [CH2SO]Val at the P1-P1' cleavage site” (J Med Chem, 1988).

Test [1] deals with T1, Renin (Homo sapiens, UniProt P00797).
T1 sequence (P00797 whole entry): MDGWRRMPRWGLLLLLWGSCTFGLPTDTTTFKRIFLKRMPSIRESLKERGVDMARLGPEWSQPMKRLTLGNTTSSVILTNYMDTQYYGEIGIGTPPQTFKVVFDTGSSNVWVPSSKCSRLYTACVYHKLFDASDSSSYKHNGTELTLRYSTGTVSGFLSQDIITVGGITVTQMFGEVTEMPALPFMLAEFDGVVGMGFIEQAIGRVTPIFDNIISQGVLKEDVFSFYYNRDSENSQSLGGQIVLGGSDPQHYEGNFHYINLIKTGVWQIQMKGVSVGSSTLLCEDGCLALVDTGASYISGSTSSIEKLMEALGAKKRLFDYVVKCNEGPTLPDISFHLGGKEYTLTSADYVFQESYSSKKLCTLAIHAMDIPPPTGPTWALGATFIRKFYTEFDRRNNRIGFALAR
The test is described as follows: In vitro inhibitory activity against renin from lyophilized human plasma. It counts as cell-free.

The target of test [2] is T2, Renin (Homo sapiens) (UniProt P00797).
T2 sequence (whole entry): T1 sequence (P00797 whole entry)
The test is described as follows: Inhibitory potency against renin relative to H-Pro-His-Pro-Phe-His-Phe-Phe-Val-Tyr-D-Lys-OH peptide.

In general, IC50 refers to the concentration at which inhibition is half-maximal. High values mean a need for much substance, low ones inhibition by little substance. On to `CC[C@@H](C)[C@H](NC(=O)[C@@H](NC[C@H](CC(C)C)NC(=O)[C@H](Cc1c[nH]cn1)NC(=O)[C@H](Cc1ccccc1)NC(=O)[C@H]1CCCN1C(=O)[C@H](Cc1c[nH]cn1)NC(=O)[C@H]1CCCN1)C(C)C)C(=O)N[C@@H](Cc1c[nH]cn1)C(=O)N[C@H](CCCCN)C(=O)O`, for which, in test [1], it took 0.049 µM to reach half-maximal inhibition (IC50). Moreover, the Relative potency in test [2] was 200.
In the same order, the values of `CC[C@@H](C)[C@H](NC(=O)[C@H](C(C)C)[S+]([O-])C[C@H](CC(C)C)NC(=O)[C@H](Cc1c[nH]cn1)NC(=O)[C@H](Cc1ccccc1)NC(=O)[C@H]1CCCN1C(=O)[C@H](Cc1c[nH]cn1)NC(=O)[C@H]1CCCN1)C(=O)N[C@@H](Cc1c[nH]cn1)C(=O)N[C@H](CCCCN)C(=O)O` (some centres not stated) are 2.5 µM and 4.
With `CC[C@@H](C)[C@H](NC(=O)/C=C/[C@H](CC(C)C)NC(=O)[C@H](Cc1c[nH]cn1)NC(=O)[C@H](Cc1ccccc1)NC(=O)[C@H]1CCCN1C(=O)[C@H](Cc1c[nH]cn1)NC(=O)[C@H]1CCCN1)C(=O)N[C@@H](Cc1c[nH]cn1)C(=O)N[C@H](CCCCN)C(=O)O`, the Relative potency in test [2] is 1.6.
`CC[C@@H](C)[C@H](NC(=O)/C=C/[C@H](CC(C)C)NC(=O)[C@H](Cc1cnc[nH]1)NC(=O)[C@H](Cc1ccccc1)NC(=O)[C@H]1CCCN1C(=O)[C@H](Cc1cnc[nH]1)NC(=O)[C@H]1CCCN1)C(=O)N[C@@H](Cc1cnc[nH]1)C(=O)N[C@H](CCCCN)C(=O)O` had an IC50 in test [1] of 6.2 µM.
On the same count and under the same terms, for `CC(C)[C@H](NC(=O)[C@H](Cc1ccccc1)NC(=O)[C@H](Cc1ccccc1)NC(=O)[C@H](Cc1cnc[nH]1)NC(=O)[C@H](Cc1ccccc1)NC(=O)[C@H]1CCCN1C(=O)[C@H](Cc1cnc[nH]1)NC(=O)[C@H]1CCCN1)C(=O)N[C@@H](Cc1ccc(O)cc1)C(=O)N[C@H](CCCCN)C(=O)O` the value was 10 µM.
Regarding `CC(C)[C@H](NC(=O)[C@H](Cc1ccccc1)NC(=O)[C@H](Cc1ccccc1)NC(=O)[C@H](Cc1c[nH]cn1)NC(=O)[C@H](Cc1ccccc1)NC(=O)[C@H]1CCCN1C(=O)[C@H](Cc1c[nH]cn1)NC(=O)[C@H]1CCCN1)C(=O)N[C@@H](Cc1ccc(O)cc1)C(=O)N[C@H](CCCCN)C(=O)O`, the Relative potency in test [2] turned out to be 1.
In test [1], `CC[C@@H](C)[C@H](NC(=O)[C@H](Cc1ccccc1)NC(=O)[C@H](Cc1ccccc1)NC(=O)[C@H](Cc1cnc[nH]1)NC(=O)[C@H](Cc1ccccc1)NC(=O)[C@H]1CCCN1C(=O)[C@H](Cc1cnc[nH]1)NC(=O)[C@H]1CCCN1)C(=O)N[C@@H](Cc1cnc[nH]1)C(=O)N[C@H](CCCCN)C(=O)O` had an IC50 of 170 µM.
Compound `CC[C@@H](C)[C@H](NC(=O)[C@@H](SC[C@H](CC(C)C)NC(=O)[C@H](Cc1c[nH]cn1)NC(=O)[C@H](Cc1ccccc1)NC(=O)[C@H]1CCCN1C(=O)[C@H](Cc1c[nH]cn1)NC(=O)[C@H]1CCCN1)C(C)C)C(=O)N[C@@H](Cc1c[nH]cn1)C(=O)N[C@H](CCCCN)C(=O)O` displayed an IC50 in test [1] of 6 µM. Moreover, in test [2], the Relative potency worked out at 1.6.
On to `CC[C@@H](C)[C@H](NC(=O)[C@H](Cc1ccccc1)NC(=O)[C@H](Cc1ccccc1)NC(=O)[C@H](Cc1c[nH]cn1)NC(=O)[C@H](Cc1ccccc1)NC(=O)[C@H]1CCCN1C(=O)[C@H](Cc1c[nH]cn1)NC(=O)[C@H]1CCCN1)C(=O)N[C@@H](Cc1c[nH]cn1)C(=O)N[C@H](CCCCN)C(=O)O`, for which, in test [2], the Relative potency was 0.6.
